Source: patent US7208167B2, “Treatment of hepatitis C with thymosin and peptide combination therapy” (SciClone Pharmaceuticals, Inc., priority 2000, dated 2007)
Marks after values point to notes of the source that are not given here. Ends that are not written are not given here.

Assays:
[1] = test system: peripheral CD4 lymphocyte counts; test: Same study: change in peripheral CD4 lymphocyte counts from baseline (flow cytometry); type: in vivo, patients
Description: (§1) Patients with chronic hepatitis C who were non-responders to previous antiviral therapy were randomized to receive PEG-IFN2a 180 μg/week plus thymalfasin given twice a week by subcutaneous injection (Group 1, 0.8 mg; Group 2, 1.6 mg; Group 3, 3.2 mg). In order to assess effect of thymalfasin on PEG-IFN2a, patients were included only if they were infected with HCV genotype 1 and had serum HCV RNA levels greater than 2 million copies per ml. The effect of therapy was assessed on the reduction in serum HCV RNA after 12 weeks, early virologic response (EVR, proportion which greater than 2 log reduction or negative HCV RNA by the Roche Amplicor assay) and on changes in peripheral CD3 and CD4 lymphocyte counts from baseline (assessed by flow cytometry).

[2] = test system: HCV genotype 1; test: 12-week dose ranging study of thymalfasin plus PEG-IFN2a in chronic hepatitis C non-responders: serum HCV RNA, EVR; type: in vivo, patients; conditions: for Median Reduction HCV RNA (log): week 12
Description: The effects of 3 different doses of thymalfasin (TA1) in combination with PEG-IFN2a on week 12 HCV RNA levels and T cell counts was investigated.
as §1
31 patients (26 male) with median age 47 yrs (range 39–58) were enrolled. Four were non-responders to a previous course of standard IFN alone while 27 had previously non responded to standard IFN with ribavirin. All subjects completed 12 weeks of therapy. Six (19%) became negative for HCV RNA on therapy. […] The median reduction in HCV RNA increased with dose with thymosin (Table B).
Patients were randomized into three groups to receive 180 mcg/week of pegylated interferon alpha-2a plus one of three different bi-weekly doses of TA1.

[3] = in vivo
Description: Patients will be monitored for significant side-effects or allergic manifestations possibly resulting from treatment. […] Patients will be educated on the symptoms of severe anaphylactic reactions and informed of appropriate countermeasures.

[4] = test system: peripheral CD3 lymphocyte counts; test: Same study: change in peripheral CD3 lymphocyte counts from baseline (flow cytometry); type: in vivo, patients
Description: as §1

[5] = test system: HCV genotype-1a; test: Case report, person with hepatitis C: HCV RNA levels; type: in vivo, patient
Description: Then it was decided to start PEG Intron at ⅕ mc/kg/w, ribavirin at 12 mg/kg/day and thymosin-alpha-1 at 3.2 mcg BIW SQ, as a second course of treatment.

[6] = Group 1: 0.8 mg biw + PEG-IFN2a 180 μg/week
[7] = Group 2: 1.6 mg biw + PEG-IFN2a 180 μg/week
[8] = Group 3: 3.2 mg biw + PEG-IFN2a 180 μg/week

Substance: thymalfasin: 28 amino acidic polypeptide with a molecular weight of 3100 that has potent immunologic activity; synthetic Tα1 by SciClone (Ac-SDAAVDTSSEITTKDLKEKKEVVEEAEN; UniProt P06454 2-29, looked up)
- CD4+ change from baseline [1, 6]: −0.2%
- CD4+ change from baseline [1, 7]: +14.8%
- CD4+ change from baseline [1, 8]: +8.8%
- EVR, early virologic response (greater than 2 log reduction or negative HCV RNA) ([2]; Group 1: 0.8 mg biw + PEG-IFN2a 180 μg/week, 12 weeks, listed as T1): 20%
- EVR, early virologic response (greater than 2 log reduction or negative HCV RNA) ([2]; Group 1: 0.8 mg biw + PEG-IFN2a 180 μg/week, 12 weeks, listed as TA1): 20%
- Median Reduction HCV RNA (log) ([2]; Group 1: T1 0.8 mg biw sc + PEG-IFN2a 180 μg/week, n=10): 0.57 log
- EVR, early virologic response (greater than 2 log reduction or negative HCV RNA) ([2]; Group 2: 1.6 mg biw + PEG-IFN2a 180 μg/week, 12 weeks, listed as T1): 30%
- EVR, early virologic response (greater than 2 log reduction or negative HCV RNA) ([2]; Group 2: 1.6 mg biw + PEG-IFN2a 180 μg/week, 12 weeks, listed as TA1): 30%
- Median Reduction HCV RNA (log) ([2]; Group 2: T1 1.6 mg biw sc + PEG-IFN2a 180 μg/week, n=10, p < 0.01 vs group 1): 0.97* log
- EVR, early virologic response (greater than 2 log reduction or negative HCV RNA) ([2]; Group 3: 3.2 mg biw + PEG-IFN2a 180 μg/week, 12 weeks, listed as T1): 36%
- EVR, early virologic response (greater than 2 log reduction or negative HCV RNA) ([2]; Group 3: 3.2 mg biw + PEG-IFN2a 180 μg/week, 12 weeks, listed as TA1): 36%
- Median Reduction HCV RNA (log) ([2]; Group 3: T1 3.2 mg biw sc + PEG-IFN2a 180 μg/week, n=11, p < 0.005 vs group 1): 1.09** log
- Patients who became negative for HCV RNA on therapy ([2]; all 31 patients, all three dose groups, with PEG-IFN2a, 12 weeks): 19%
- local or systemic side effects [3]: no local or systemic side effects have been observed
- CD3+ change from baseline [4, 6]: 0%
- CD3+ change from baseline [4, 7]: +8.3%
- CD3+ change from baseline [4, 8]: +7.5%
- HCV RNA by TMA ([5]; 1 and 3 months after stopping 12 months of PEG Intron + ribavirin + thymosin-alpha-1): negative
- HCV RNA blood levels by TMA ([5]; PEG Intron ⅕ mc/kg/w + ribavirin 12 mg/kg/day + thymosin-alpha-1 3.2 mcg BIW SQ, month 1, 3, 6 and 12): less than 5 IU/mL
